Results: patent publication US20150118179A1, “BIOCIDAL COMPOUNDS AND METHODS FOR USING SAME” (UNIVERSITY OF MANITOBA, priority 2012, published 2015)
Several values for one entry are separate records, joined by “and”; a condition that tells them apart may be missing. Equal entries are not always repeated.

Key:
CA-MRSA 40065 = experiment: Biocidal activity in bacterial suspension (Example 18); type: cell-based, Staphylococcus aureus; conditions: 15 ppm [Cl+]
Experimental: Logarithmic-phase cultures of MRSA were prepared using similar way except TSA broth was used instead.
(§1) Biocidal activity of synthetic compounds was completed as followed. To 20 mL of bacterial suspension (10^5 or 10^6 cfu/mL) in a centrifuge tube was added 30 μL solution of synthetic compounds (0.282 M stock solution) to achieve a final [Cl^+] of 15 ppm. Timing of the exposure to the disinfectant was started immediately with the addition of the synthetic compound. After predetermined contact time, 1.0 mL aliquots were withdrawn and added to an equal volume of 0.02 N sodium thiosulfate in PBS (0.1 M, pH 7.4). The quenched suspension was serially diluted and 100 μL of each resulting dilution was placed onto nutrient agar plates. After being incubated at 37° C. for 24 hours, the viable bacterial colonies on the plates were counted. Bacterial reduction was reported according to:
(§2) Percentage reduction of bacteria (%)=(A−B)/A×100
(§3) Log reduction=Log(A/B) (4)
(§4) where A is the number of bacteria in the starting inoculum (cfu/mL), and B is the number of bacteria retrieved from synthetic compounds (cfu/mL).

P. aeruginosa 73104 = experiment: as above; type: cell-based, Pseudomonas aeruginosa; conditions: 15 ppm [Cl+]; for Reduction of P. aeruginosa: 10^6 cfu/mL P. aeruginosa, within 60 min of contact
Experimental: Logarithmic-phase cultures of P. aeruginosa were prepared by initially suspending several colonies in cation-supplemented Mueller-Hinton broth (Oxoid, Nepean, Ontario, Canada) at a density equivalent to a 0.5 McFarland standard (1×10^8 cfu/mL). This suspension was then diluted 1:100 and 20 μL of the diluted suspension was further diluted in 60 mL of cation-supplemented Mueller-Hinton broth. Following overnight growth at 37° C., suspensions were diluted 1:[…] to get inoculums of approximately 1×10^6 or 1×10^5 cfu/mL.
as §1, §2, §3, §4

[1] = Table 5, contact 3 min, inoculum 2.83 × 10^6 cfu/mL
[2] = Table 5, contact 5 min, inoculum 2.83 × 10^6 cfu/mL
[3] = Table 5, contact 10 min, inoculum 2.83 × 10^6 cfu/mL
[4] = Table 5, contact 20 min, inoculum 2.83 × 10^6 cfu/mL
[5] = Table 5, contact 30 min, inoculum 2.83 × 10^6 cfu/mL
[6] = Table 5, contact 45 min, inoculum 2.83 × 10^6 cfu/mL
[7] = Table 5, contact 60 min, inoculum 2.83 × 10^6 cfu/mL
[8] = Table 4, contact 3 min, inoculum 2.26-2.98 × 10^5 CFU/mL
[9] = Table 4, contact 5 min, inoculum 2.26-2.98 × 10^5 CFU/mL
[10] = Table 4, contact 10 min, inoculum 2.26-2.98 × 10^5 CFU/mL
[11] = Table 4, contact 20 min, inoculum 2.26-2.98 × 10^5 CFU/mL
[12] = Table 4, contact 30 min, inoculum 2.26-2.98 × 10^5 CFU/mL
[13] = Table 4, contact 45 min, inoculum 2.26-2.98 × 10^5 CFU/mL
[14] = Table 4, contact 60 min, inoculum 2.26-2.98 × 10^5 CFU/mL
[15] = Table 2, contact 1 min, inoculum 1.57-1.75 × 10^6 CFU/mL
[16] = Table 2, contact 3 min, inoculum 1.57-1.75 × 10^6 CFU/mL
[17] = Table 2, contact 5 min, inoculum 1.57-1.75 × 10^6 CFU/mL
[18] = Table 2, contact 10 min, inoculum 1.57-1.75 × 10^6 CFU/mL
[19] = Table 2, contact 60 min, inoculum 1.57-1.75 × 10^6 CFU/mL
[20] = Table 3, contact 3 min, inoculum 2.26 × 10^5 CFU/mL
[21] = Table 3, contact 5 min, inoculum 2.26 × 10^5 CFU/mL
[22] = Table 3, contact 10 min, inoculum 2.26 × 10^5 CFU/mL
[23] = Table 3, contact 60 min, inoculum 2.26 × 10^5 CFU/mL
[24] = Table 3, contact 90 min, inoculum 2.26 × 10^5 CFU/mL

| Structure (SMILES) | Bacteria reduction % (CA-MRSA 40065; [1]) [%] | Bacteria reduction % (CA-MRSA 40065; [2]) [%] | Bacteria reduction Log (CA-MRSA 40065; [2]) | Bacteria reduction % (CA-MRSA 40065; [3]) [%] | Bacteria reduction Log (CA-MRSA 40065; [3]) [Log] | Bacteria reduction % (CA-MRSA 40065; [4]) [%] | Bacteria reduction % (P. aeruginosa 73104; [8]) [%] | Bacteria reduction Log (P. aeruginosa 73104; [8]) [Log] | Bacteria reduction % (P. aeruginosa 73104; [9]) [%] | Bacteria reduction Log (P. aeruginosa 73104; [9]) [Log] | Bacteria reduction % (P. aeruginosa 73104; [10]) [%] | Bacteria reduction Log (P. aeruginosa 73104; [10]) [Log] | Bacteria reduction % (P. aeruginosa 73104; [11]) [%] | Bacteria reduction Log (P. aeruginosa 73104; [11]) [Log] | Bacteria reduction % (P. aeruginosa 73104; [12]) [%] | Bacteria reduction Log (P. aeruginosa 73104; [12]) [Log] | Bacteria reduction % (P. aeruginosa 73104; [13]) [%] | Bacteria reduction Log (P. aeruginosa 73104; [13]) [Log] | Bacteria reduction % (P. aeruginosa 73104; [14]) [%] | Bacteria reduction Log (P. aeruginosa 73104; [14]) [Log] | further results |
| --- | --- | --- | --- | --- | --- | --- | --- | --- | --- | --- | --- | --- | --- | --- | --- | --- | --- | --- | --- | --- | --- |
| CCCCCCCCCCCC[N+](C)(C)CCn1cc(C[N+](C)(C)CCCN2C(=O)N(Cl)C(C)(C)C2=O)nn1 [Compound 16] | 84.4 | 93.4 | > 1 Log and 1.18 Log | 99.8 | 2.77 | 100 | 99.6 | 2.62 | 99.97 | 4.32 | 100 | 5.47 | 100 | 5.47 | 100 | 5.47 | 100 | 5.47 | 100 | 5.47 | Bacteria reduction Log (CA-MRSA 40065; [4]): 6.45 Log; Bacteria reduction % (CA-MRSA 40065; [5]): 100%; Bacteria reduction Log (CA-MRSA 40065; [5]): 6.45 Log; Bacteria reduction % (CA-MRSA 40065; [6]): 100%; Bacteria reduction Log (CA-MRSA 40065; [6]): 6.45 Log; Bacteria reduction % (CA-MRSA 40065; [7]): 100%; Bacteria reduction Log (CA-MRSA 40065; [7]): 6.45 Log |
| CCCCCCCCCCCC[N+](C)(C)CCn1cc(C[N+](C)(C)CCCN2C(=O)NC(C)(C)C2=O)nn1 [Compound 15] | 86.9 | 79.5 | 0.69 Log | 85.1 | 0.83 | 67.8 | 75.7 | 0.74 | 98.4 | 1.88 | 99.9 | 3.02 | 99.97 | 4.32 | 100 | 5.47 | 100 | 5.47 | 100 | 5.47 | Bacteria reduction Log (CA-MRSA 40065; [4]): 0.49 Log; Bacteria reduction % (CA-MRSA 40065; [5]): 79.8%; Bacteria reduction Log (CA-MRSA 40065; [5]): 0.70 Log; Bacteria reduction % (CA-MRSA 40065; [6]): 92.6%; Bacteria reduction Log (CA-MRSA 40065; [6]): 1.13 Log; Bacteria reduction % (CA-MRSA 40065; [7]): 87.3%; Bacteria reduction Log (CA-MRSA 40065; [7]): 0.89 Log; Bacteria reduction % (CA-MRSA 40065; independent of contact duration (3-60 minutes)): around 80% |
| CC1(C)C(=O)N(CCC[N+](C)(C)CCCN2C(=O)N(Cl)C(C)(C)C2=O)C(=O)N1Cl.[Cl-] [Compound 14] |  |  |  |  |  |  | 22.6 | 0.11 | 24.8 | 0.13 | 26.6 | 0.14 | 70.8 |  | 99.96 | 3.39 | 100 | 5.47 | 100 | 5.47 | Bacteria reduction % (CA-MRSA 40065; [15]): 85.8%; Bacteria reduction Log10 (CA-MRSA 40065; [15]): 0.85 Log10; Bacteria reduction % (CA-MRSA 40065; [16]): 79.1%; Bacteria reduction Log10 (CA-MRSA 40065; [16]): 0.68 Log10; Bacteria reduction % (CA-MRSA 40065; [17]): 64.3%; Bacteria reduction Log10 (CA-MRSA 40065; [17]): 0.45 Log10; Bacteria reduction % (CA-MRSA 40065; [18]): 91.9%; Bacteria reduction Log10 (CA-MRSA 40065; [18]): 1.09 Log10; Bacteria reduction % (CA-MRSA 40065; [19]): 99.5%; Bacteria reduction Log10 (CA-MRSA 40065; [19]): 2.32 Log10; Reduction of P. aeruginosa (P. aeruginosa 73104): cannot bring any significant reduction; Bacteria reduction % (P. aeruginosa 73104; [20]): 22.6 ± 4.4%; Bacteria reduction % (P. aeruginosa 73104; [21]): 24.8 ± 10.0%; Bacteria reduction % (P. aeruginosa 73104; [22]): 26.6% and 26.6 ± 12.5%; Bacteria reduction Log10 (P. aeruginosa 73104; [22]): 0.14 ± 0.07 Log10; Bacteria reduction % (P. aeruginosa 73104; [23]): 100%; Bacteria reduction Log10 (P. aeruginosa 73104; [23]): 5.35 Log10; Bacteria reduction % (P. aeruginosa 73104; [24]): 100%; Bacteria reduction Log10 (P. aeruginosa 73104; [24]): 5.35 Log10 |
| CC1(C)C(=O)N(CCC[N+](C)(C)CC[N+](C)(C)C)C(=O)N1Cl.[Cl-].[Cl-] [Compound 12] |  |  |  |  |  |  | 39.8 | 0.22 | 44.7 | 0.26 | 62.8 | 0.43 | 99.70 | 2.50 | 100 | 4.82 | 100 | 5.47 | 100 | 5.47 | Bacteria reduction % (CA-MRSA 40065; [16]): 88.0%; Bacteria reduction Log10 (CA-MRSA 40065; [16]): 0.92 Log10; Bacteria reduction % (CA-MRSA 40065; [17]): 92.3%; Bacteria reduction Log10 (CA-MRSA 40065; [17]): 0.92 Log10; Bacteria reduction % (CA-MRSA 40065; [18]): 94.2%; Bacteria reduction Log10 (CA-MRSA 40065; [18]): 1.24 Log10; Bacteria reduction % (CA-MRSA 40065; [19]): 99.5%; Bacteria reduction Log10 (CA-MRSA 40065; [19]): 2.31 Log10; Reduction of P. aeruginosa (P. aeruginosa 73104): cannot bring any significant reduction; Bacteria reduction % (P. aeruginosa 73104; [20]): 39.8 ± 10.0%; Bacteria reduction % (P. aeruginosa 73104; [21]): 44.7 ± 1.9%; Bacteria reduction Log10 (P. aeruginosa 73104; [22]): 0.43 ± 0.01 Log10; Bacteria reduction % (P. aeruginosa 73104; [23]): 100%; Bacteria reduction Log10 (P. aeruginosa 73104; [23]): 5.35 Log10; Bacteria reduction % (P. aeruginosa 73104; [24]): 100%; Bacteria reduction Log10 (P. aeruginosa 73104; [24]): 5.35 Log10 |
